Assays:
HCT116 WT cells = assay: HCT116 proliferation assay, WT cells (CellTiter-Glo, 6 days); format: cell-based; conditions: Homo sapiens, HCT-116, 144 h, read-out: Prolif_HCT116-WT IC50
Outline: (§1)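 Cells grown in RPMI 1640 + 10% FBS, plated overnight, then exposed for 6 days to 8- or 9-point 1:3 compound dilutions (top 1 or 10 µM) with DMSO control. Viability read by CellTiter-Glo luminescence.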

PRMT5/MEP50 = PRMT5/MEP50 (Homo sapiens, UniProt O14744); assay: MTase-Glo methyl transferase assay, Method A (Histone H4 peptide, 1 µM MTA, 24 h pre-incubation); format: biochemical; parameters: made in house; conditions: read-out: PRMT5 MTase Glo Ki (nM, Meth. A)
Outline: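 PRMT5/MEP50 (10 nM) pre-incubated 24 h with compound, 5 µM SAM and 1 µM MTA, then reaction started with 1 µM Histone H4 (1-21) peptide and run 2 h at room temperature in Tris pH 8.0 buffer. SAH formed detected by MTase-Glo luminescence; IC50 and KI from dose-response curves.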

HCT116 MTAP null cells = assay: HCT116 proliferation assay, MTAP null cells (CellTiter-Glo, 6 days); format: cell-based; conditions: HCT116-MTAP null, 144 h, read-out: Protif_ HCT116-MTAP null IC50
Outline: as §1

Chain of PRMT5/MEP50 (O14744 whole entry): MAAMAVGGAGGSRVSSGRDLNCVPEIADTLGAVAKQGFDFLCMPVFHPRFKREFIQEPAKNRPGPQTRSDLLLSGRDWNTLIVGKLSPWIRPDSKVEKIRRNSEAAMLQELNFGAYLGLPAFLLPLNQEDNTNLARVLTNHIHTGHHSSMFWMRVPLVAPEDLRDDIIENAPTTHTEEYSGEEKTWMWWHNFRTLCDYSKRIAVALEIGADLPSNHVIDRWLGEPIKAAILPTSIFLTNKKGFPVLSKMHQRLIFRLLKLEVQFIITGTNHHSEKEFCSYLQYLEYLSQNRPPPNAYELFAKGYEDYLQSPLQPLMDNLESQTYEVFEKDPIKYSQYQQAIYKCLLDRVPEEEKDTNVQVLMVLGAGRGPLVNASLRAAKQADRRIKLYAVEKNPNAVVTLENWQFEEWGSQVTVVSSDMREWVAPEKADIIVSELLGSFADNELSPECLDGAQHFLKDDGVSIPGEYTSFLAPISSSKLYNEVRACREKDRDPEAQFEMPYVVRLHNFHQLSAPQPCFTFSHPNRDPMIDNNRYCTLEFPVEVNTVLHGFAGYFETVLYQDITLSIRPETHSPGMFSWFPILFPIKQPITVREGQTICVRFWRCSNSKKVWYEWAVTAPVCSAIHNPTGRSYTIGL
Chain of PRMT5/MEP50 (Q9BQA1 whole entry partner): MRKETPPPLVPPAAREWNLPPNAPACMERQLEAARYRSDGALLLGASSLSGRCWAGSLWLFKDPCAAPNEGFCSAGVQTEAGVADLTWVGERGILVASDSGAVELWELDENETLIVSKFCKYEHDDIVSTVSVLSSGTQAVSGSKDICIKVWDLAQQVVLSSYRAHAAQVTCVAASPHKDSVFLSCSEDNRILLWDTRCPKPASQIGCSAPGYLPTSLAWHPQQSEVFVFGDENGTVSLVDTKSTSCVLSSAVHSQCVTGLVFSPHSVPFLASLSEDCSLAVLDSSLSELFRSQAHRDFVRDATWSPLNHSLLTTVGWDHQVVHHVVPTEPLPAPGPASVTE

| IC50 (HCT116 WT cells) [nM] | Ki (PRMT5/MEP50) [nM] | IC50 (HCT116 MTAP null cells) [nM] | Compound |
| --- | --- | --- | --- |
| > 10000 | 0.27 | 793 | Cc1cc2cc(C(=O)N(Cc3ncc(C(F)(F)F)cc3Cl)[C@H](C)c3ncccc3F)ccc2nc1N [Example 396, 2-amino-N-((3-chloro-5-(trifluoromethyl)-2-pyridinyl)methyl)-N-((1R)-1-(3-fluoro-2-pyridinyl)ethyl)-3-methyl-6-quinolinecarboxamide] |
| 7960 | 0.23 | 286 | C[C@H](c1ncccc1F)N(Cc1ccc(C(F)(F)F)nn1)C(=O)c1cnc2nc(N)c(Br)cc2c1 [Example 397, 7-amino-6-bromo-N-((1R)-1-(3-fluoro-2-pyridinyl)ethyl)-N-((6-(trifluoromethyl)-3-pyridazinyl)methyl)-1,8-naphthyridine-3-carboxamide] |
| 960 | 0.05 | 41 | Cc1cc2cc(C(=O)N(Cc3ccc(Br)cn3)[C@H](C)c3ncccc3F)ccc2nc1N [Example 400, 2-amino-N-((5-bromo-2-pyridinyl)methyl)-N-((1R)-1-(3-fluoro-2-pyridinyl)ethyl)-3-methyl-6-quinolinecarboxamide] |
| 1570 | 0.08 | 51 | Cc1cc2cc(C(=O)N(Cc3ccc(Cl)cn3)[C@H](C)c3ncccc3F)ccc2nc1N [Example 401, 2-amino-N-((5-chloro-2-pyridinyl)methyl)-N-((1R)-1-(3-fluoro-2-pyridinyl)ethyl)-3-methyl-6-quinolinecarboxamide] |
| 526 | 0.04 | 15 | Cc1cc2cc(C(=O)N(Cc3ccc(Br)cn3)[C@H](C)c3ncccn3)ccc2nc1N [Example 402] |
| 8880 | 0.55 | 263 | COC(=O)c1ccc(CN(C(=O)c2ccc3nc(N)c(C)cc3c2)[C@H](C)c2ncccc2F)nc1 [Example 403, methyl 6-((((2-amino-3-methyl-6-quinolinyl)carbonyl)((1R)-1-(3-fluoro-2-pyridinyl)ethyl)amino)methyl)-3-pyridinecarboxylate] |
| 3160 | 1.68 | 90 | Cc1cc2cc(C(=O)N(Cc3ccc(C#N)cn3)[C@H](C)c3ncccn3)c(F)cc2nc1N [Example 404, 2-amino-N-((5-cyano-2-pyridinyl)methyl)-7-fluoro-3-methyl-N-((1R)-1-(2-pyrimidinyl)ethyl)-6-quinolinecarboxamide] |
| 1040 | 0.03 | 54 | Cc1cc2cc(C(=O)N(Cc3ccc(C#N)cn3)[C@H](C)c3ccccc3F)ccc2nc1N [Example 405, 2-amino-N-((5-cyano-2-pyridinyl)methyl)-N-((1R)-1-(2-fluorophenyl)ethyl)-3-methyl-6-quinolinecarboxamide] |
| > 10000 | 0.47 | 682 | C[C@H](c1ncccn1)N(Cc1ccc(C#N)cn1)C(=O)c1cnc2nc(N)c(Br)cc2c1 [Example 406, 7-amino-6-bromo-N-((5-cyano-2-pyridinyl)methyl)-N-((1R)-1-(2-pyrimidinyl)ethyl)-1,8-naphthyridine-3-carboxamide] |
| > 10000 | 0.11 | 291 | C[C@H](c1ncccn1)N(Cc1ccc(C(F)F)cn1)C(=O)c1cnc2nc(N)c(Br)cc2c1 [Example 407, 7-amino-6-bromo-N-((5-(difluoromethyl)-2-pyridinyl)methyl)-N-((1R)-1-(2-pyrimidinyl)ethyl)-1,8-naphthyridine-3-carboxamide] |
| > 10000 | 0.13 | 597 | C[C@H](c1ncccn1)N(Cc1ccc(C#N)cn1)C(=O)c1ccc2nc(N)c(Cl)cc2c1 [Example 408, 2-amino-3-chloro-N-((5-cyano-2-pyridinyl)methyl)-N-((1R)-1-(2-pyrimidinyl)ethyl)-6-quinolinecarboxamide] |
| > 10000 | 0.24 | 692 | Cc1cc2cc(C(=O)N(Cc3ccc(C(F)F)cn3)[C@H](C)c3ncccn3)cnc2nc1N [Example 409, 7-amino-N-((5-(difluoromethyl)-2-pyridinyl)methyl)-6-methyl-N-((1R)-1-(2-pyrimidinyl)ethyl)-1,8-naphthyridine-3-carboxamide] |
| 5390 | 0.04 | 88 | C[C@H](c1ncccn1)N(Cc1ccc(C(F)F)cn1)C(=O)c1ccc2nc(N)c(Br)cc2c1 [Example 410, 2-amino-3-bromo-N-((5-(difluoromethyl)-2-pyridinyl)methyl)-N-((1R)-1-(2-pyrimidinyl)ethyl)-6-quinolinecarboxamide] |
| > 10000 | 0.22 | 182 | COc1ccc(CN(C(=O)c2ccc3nc(N)c(Br)cc3c2)[C@H](C)c2ncccn2)nn1 [Example 411, 2-amino-3-bromo-N-((6-methoxy-3-pyridazinyl)methyl)-N-((1R)-1-(2-pyrimidinyl)ethyl)-6-quinolinecarboxamide] |
| 4050 | 0.18 | 123 | C[C@H](c1ncccn1)N(Cc1ccc(Cl)cn1)C(=O)c1ccc2nc(N)c(Br)cc2c1 [Example 412, 2-amino-3-bromo-N-((5-chloro-2-pyridinyl)methyl)-N-((1R)-1-(2-pyrimidinyl)ethyl)-6-quinolinecarboxamide] |
| > 10000 | 0.65 | 655 | COc1ccc(CN(C(=O)c2ccc3nc(N)c(Cl)cc3c2)[C@H](C)c2ncccn2)nn1 [Example 413, 2-amino-3-chloro-N-((6-methoxy-3-pyridazinyl)methyl)-N-((1R)-1-(2-pyrimidinyl)ethyl)-6-quinolinecarboxamide] |
| 5180 | 0.3 | 234 | C[C@H](c1ncccn1)N(Cc1ccc(Cl)cn1)C(=O)c1cnc2nc(N)c(Br)cc2c1 [Example 414, 7-amino-6-bromo-N-((5-chloro-2-pyridinyl)methyl)-N-((1R)-1-(2-pyrimidinyl)ethyl)-1,8-naphthyridine-3-carboxamide] |
| 490 | 0.54 | 39 | Cc1cc2cc(C(=O)N(Cc3ccc(Cl)cn3)[C@H](C)c3ncccn3)c(F)cc2nc1N [Example 415, 2-amino-N-((5-chloro-2-pyridinyl)methyl)-7-fluoro-3-methyl-N-((1R)-1-(2-pyrimidinyl)ethyl)-6-quinolinecarboxamide] |
| 6650 | 0.17 | 262 | Cc1cc2cc(C(=O)N(Cc3ccc(Br)nn3)[C@@H]3CCCn4ncnc43)ccc2nc1N [Example 416, 2-amino-N-((6-bromo-3-pyridazinyl)methyl)-3-methyl-N-((8R)-5,6,7,8-tetrahydro[1,2,4]triazolo[1,5-a]pyridin-8-yl)-6-quinolinecarboxamide] |
| > 10000 | 0.33 | 151 | C[C@H](c1ncccn1)N(Cc1ccc(C#N)cn1)C(=O)c1ccc2nc(N)c(Br)cc2c1 [Example 417, 2-amino-3-bromo-N-((5-cyano-2-pyridinyl)methyl)-N-((1R)-1-(2-pyrimidinyl)ethyl)-6-quinolinecarboxamide] |
| > 10000 | 0.27 | 500 | Cc1cc2cc(C(=O)N(Cc3ccc(C#N)cn3)[C@H](C)c3ncccn3)ncc2nc1N [Example 418, 2-amino-N-((5-cyano-2-pyridinyl)methyl)-3-methyl-N-((1R)-1-(2-pyrimidinyl)ethyl)-1,7-naphthyridine-6-carboxamide] |
| > 10000 | 0.16 | 271 | C[C@H](c1ncccn1)N(Cc1ccc(C(F)(F)F)cn1)C(=O)c1cc2cc(Br)c(N)nc2cn1 [Example 419, 2-amino-3-bromo-N-((1R)-1-(2-pyrimidinyl)ethyl)-N-((5-(trifluoromethyl)-2-pyridinyl)methyl)-1,7-naphthyridine-6-carboxamide] |
| 3450 | 0.18 | 225 | C[C@H](c1ncccn1)N(Cc1ccc(C(F)(F)F)cn1)C(=O)c1cnc2nc(N)c(Cl)cc2c1 [Example 420, 7-amino-6-chloro-N-((1R)-1-(2-pyrimidinyl)ethyl)-N-((5-(trifluoromethyl)-2-pyridiny1)methyl)-1,8-naphthyridine-3-carboxamide] |
| 1130 | 0.54 | 56 | Cc1cc2cc(C(=O)N(Cc3ccc(C#N)cn3)[C@@H](c3ncccn3)C3CC3)c(F)cc2nc1N [Example 421, 2-amino-N-((5-cyano-2-pyridinyl)methyl)-N-((R)-cyclopropyl(2-pyrimidinyl)methyl)-7-fluoro-3-methyl-6-quinolinecarboxamide] |
| > 10000 | 0.2 | 360 | C[C@H](c1ncccn1)N(Cc1ccc(C(F)(F)F)cn1)C(=O)c1cc2cc(Cl)c(N)nc2cn1 [Example 422, 2-amino-3-chloro-N-((1R)-1-(2-pyrimidinyl)ethyl)-N-((5-(trifluoromethyl)-2-pyridinyl)methyl)-1,7-naphthyridine-6-carboxamide] |
| 1830 | 0.07 | 54 | Cc1cc2cc(C(=O)N(Cc3ccc(C#N)cn3)[C@@H](c3ncccn3)C3CC3)ccc2nc1N [Example 423, 2-amino-N-((5-cyano-2-pyridinyl)methyl)-N-((R)-cyclopropyl(2-pyrimidinyl)methyl)-3-methyl-6-quinolinecarboxamide] |
| 9080 | 0.61 | 319 | C[C@H](c1ncccc1F)N(Cc1ccc(Br)nn1)C(=O)c1cnc2nc(N)c(Br)cc2c1 [Example 424, 7-amino-6-bromo-N-((6-bromo-3-pyridazinyl)methyl)-N-((1R)-1-(3-fluoro-2-pyridinyl)ethyl)-1,8-naphthyridine-3-carboxamide] |

— patent US20230159510A1, “NOVEL PRMT5 INHIBITORS” (AMGEN INC., priority 2020, published 2023)
